The source of these data is paper PMC7433010, “Exploration of multi‐target effects of 3‐benzoyl‐5‐hydroxychromen‐2‐one in Alzheimer’s disease cell and mouse models” (Aging Cell, 2020).

The subject of one experiment is pAKT (S473). Nature of the experiment: Western blot of pAKT (S473) in ∆K280 TauRD‐DsRed SH‐SY5Y cells. The experiment is classed as cell-based, human. The conditions noted are these: induced untreated 84%, uninduced 100%. As for the experimental part:
Total proteins from ∆K280 TauRD-DsRed SH-SY5Y cells were obtained using a RIPA buffer containing 50 mM Tris-HCl (pH8.0), 150 mM NaCl, 2 mM EDTA (pH8.0), 50 mM NaF, 0.1% SDS, 0.5% sodium deoxycholate, 1% NP40, and a protease inhibitor cocktail (Sigma-Aldrich). After sonication and sitting on ice for 20 min, the lysates were centrifuged at 14,000 × g for 30 min at 4°C. Protein concentrations were determined using a protein assay kit (Bio-Rad, Hercules, CA, USA), with albumin as a standard. Total proteins (20 µg) were electrophoresed on 10% or 12% SDS-polyacrylamide gel and transferred onto polyvinylidene difluoride (PVDF) membranes (Sigma-Aldrich) through reverse electrophoresis. […] Subsequently, immune complexes were detected using a horseradish peroxidase-conjugated goat anti-mouse or goat anti-rabbit IgG antibody (1:5000; GeneTex, Irvive, CA, USA) and a chemiluminescent substrate (Millipore).
Figure S4. ΔK280 TauRD-DsRed SH-SY5Y cells. […] On day 9, neurite outgrowth and caspase 3 activity were measured. In addition, expression of HSPB1, NRF2, and CREB pathways were assessed. (b) Relative AKT, pAKT, ERK, and pERK protein levels analyzed through immunoblotting. […]
(In general: Immunoblotting shows a protein as a band on a membrane.)

The test system of experiment [1] is ∆K280 TauRD‐DsRed‐expressing SH‐SY5Y cells. The experiment can be described thus: Neurite outgrowth analysis in ∆K280 TauRD‐DsRed SH‐SY5Y cells. The experiment is classed as cell-based, human. The conditions noted are these: 1 µM. The procedure:
On day 1, ∆K280 TauRD-DsRed-expressing SH-SY5Y cells were seeded on a 24-well plate in a density of 3 × 10^4 cells/well, with 10 µM retinoic acid (Sigma-Aldrich) added to induce neuronal differentiation. On the second day, the cells were treated with licochalcone A (1 µM), LM-031 (1 µM), or congo red (10 µM) for 8 h and ∆K280 TauRD-DsRed expression was induced as described. After seven days, the cells were washed with phosphate-buffered saline (PBS) and fixed in 4% paraformaldehyde in PBS for 15 min. After permeabilized with 0.1% Triton X-100 in PBS for 10 min and blocked by 3% BSA in PBS for 20 min, cells were stained with primary neuronal class III β-tubulin (TUBB3) antibody (1:1000; Covance, Princeton, NJ, USA) at 4°C overnight and secondary anti-rabbit Alexa Fluor ®555 antibody (1:1000; Invitrogen) at room temperature for 3 h. After nuclei were stained with DAPI for 30 min, neuronal images were captured using the high-content imaging system as described and analyzed using the Neurite Outgrowth Application Module (Molecular Devices).
To knock down CREB expression in ∆K280 TauRD-DsRed SH-SY5Y cells, lentiviral short hairpin RNA (shRNA) targeting CREB (TRCN0000226466), NRF2 (TRCN0000007558), and a negative control scrambled (TRC2.Void) were obtained from National RNAi Core Facility, IMB/GRC, Academia Sinica, Taipei, Taiwan. On day 1, cells were plated on 6-well plates (for protein analysis) or 24-well plates (for neurite outgrowth analysis) in the presence of retinoic acid as described. On the second day, the cells were infected with lentivirus (multiplicity of infection: 3) in medium with polybrene (8 µg/mL; Sigma-Aldrich). On day 3, the culture medium was changed and the cells were pretreated with LM-031 (1 µM) for 8 h, followed by induction of ∆K280 TauRD-DsRed expression. On day 9, the cells were collected for NRF2, CREB, pCREB, and cleaved CASP3 protein analysis or analyzed for neurite outgrowth as described.

On to `O=C(c1ccccc1)c1cc2c(O)cccc2oc1=O` [LM‐031, 3‐benzoyl‐5‐hydroxychromen‐2‐one], for which the “pAKT (S473) expression level” value with pAKT (S473) is reported as 113%. In addition, the neurite length in experiment [1] (CREB‐specific shRNA‐infected cells, untreated 46 µm) is recorded as 51 µm; in experiment [1] (NRF2‐specific shRNA‐infected cells, untreated 42 µm), 46 µm; in experiment [1] (scrambled shRNA‐infected cells, untreated 48 µm), 53 µm.
